Values quoted from earlier work, collected in article PMC10010621, “ATP binding by an F1Fo ATP synthase ε subunit is pH dependent, suggesting a diversity of ε subunit functional regulation in bacteria” (Frontiers in Molecular Biosciences, 2023).

Legend:
[1] = set-up: method as in Tanokura et al., 1976; details: solution phase; ref Tanokura et al., 1976
[2] = tested on: ε subunit of M. tuberculosis; set-up: method as in Biukovic et al., 2013; details: at the conditions measured; ref Biukovic et al., 2013
[3] = tested on: B. subtilis ε subunit εE102R; set-up: method as in Krah et al., 2021; details: εE102R versus wild-type; ref Krah et al., 2021
[4] = tested on: Escherichia coli ε subunit; set-up: method as in Yagi et al., 2007; details: isolated ε subunit; ref Yagi et al., 2007; read-out: Kd (ATP binding affinity)
[5] = tested on: C. thermarum ε subunit NTH mutant (εD89A, εR92A); set-up: method as in Ferguson et al., 2016; details: F1 domain, ref Ferguson et al., 2016
Bacillus PS3 ε subunit = details: isolated ε subunit; ref Kato et al., 2007; read-out: Kd (ATP binding affinity)
[6] = biological target: εR103A/εR115A double-mutant ε subunit of Bacillus PS3; set-up: method as in Kato-Yamada, 2016; details: ref Kato-Yamada, 2016, read-out: ATP binding affinity
[7] = tested on: B. subtilis ε subunit εE102A; set-up: method as in Krah et al., 2021; details: εE102A versus wild-type; ref Krah et al., 2021
[8] = biological target: Bacillus subtilis ε subunit; set-up: method as in Kato-Yamada, 2005; Krah et al., 2021; details: isolated ε subunit; ref Kato-Yamada, 2005; Krah et al., 2021; read-out: Kd (ATP binding affinity)

| SMILES | pKa of the imidazole group [1] | ATP binding [2] | increase in ATP binding affinity [3] [fold] | Kd [4] [µM] | ATP binding [5] | Kd (Bacillus PS3 ε subunit) [µM] | Kd [6] [µM] | increase in ATP binding affinity [7] [fold] | Kd [8] [µM] |
| --- | --- | --- | --- | --- | --- | --- | --- | --- | --- |
| N[C@@H](Cc1c[nH]cn1)C(=O)O [histidine] | 6.0–6.5 | – | – | – | – | – | – | – | – |
| Nc1ncnc2c1ncn2[C@@H]1O[C@H](COP(=O)(O)OP(=O)(O)OP(=O)(O)O)[C@@H](O)[C@H]1O [ATP] | – | did not bind to ATP | ~54 | 22000 | lack of ability to bind ATP | 4.3 | 0.052 | ~10 | 2100 |
